Test results published in patent US5583000A, “Protease-binding compounds and methods of use” (priority 1993, dated 1996).
Values after ≈ are worked out from the molar mass of the structure shown. Values joined by “and” are separate entries in the source; they are usually repeats but may differ in a detail not shown here. Equal values may be shown once. Read-outs that look alike come from different tables or passages of the source.

What was measured:
[1] = target: T1, HIV-1 protease (Human immunodeficiency virus type 1 group M subtype B, UniProt P03369); experiment: biochemical
[2] = target: T2, HIV-2 protease (Human immunodeficiency virus type 2 subtype A, UniProt P04584); experiment: biochemical
T2 construct: the coding region of the 99-amino acid protease; made in house; host or cells: Saccharomyces cerevisiae strain AB110, plasmid pHIV2PR115
T2 sequence (P04584 514-612 limits assumed): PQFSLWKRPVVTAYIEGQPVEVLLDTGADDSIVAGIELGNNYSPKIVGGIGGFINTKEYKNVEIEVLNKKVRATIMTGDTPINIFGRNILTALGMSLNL
Experimental: The decapeptide was synthesized by conventional solid-state methods. Reactions were carried out and fractionated by HPLC. Conversion of the decapeptide to the two pentapeptides was quantitated by integration of the peak areas and comparison to product standard curves.
Enzymatic Inhibition. […] Each data point was done in triplicate and initial enzyme rates were fit to the Michaelis-Menten equation using a nonlinear regression program ("Enzfitter" from Biosoft).

[3] = physchem
[4] = target: T1, HIV-1 protease; format: cell-based; design: fused to amino acids 5 (Asp) to 179 (Trp) of the pol region; human superoxide dismutase (hSOD, 153 residues) (N); Phe-Arg-Glu are pol residues) (N); additional Pro residue of pol (C); expressed in transfected cells; host or cells: E. coli strain D1210 harboring plasmid pSOD/PR179
[5] = tested on: HIV; experiment: HeLa/T4 infectivity assay with replication-defective virions from transfected COS-7 cells; format: cell-based; settings: for colony reduction (summary in words): Table 5 concentrations
[6] = in vitro
Experimental: Cytotoxicity. The MTT assay was performed as follows:
The cells were seeded in 96-well plates and grown overnight to near 50% confluency. A serial dilution (1 to 500 μM) of each compound in culture media was prepared and 250 μL/well was added in duplicate. The cells were allowed to grow for various periods of time (6, 24, 48 hours) and any precipitation of compounds in the wells was noted. The assay was performed by removing 200 μL of the culture media and adding 25 μL of MTT solution (2 mg/mL in phosphate buffered saline (PBS)). This was incubated for 4 hours at 37° C. and live cells began to turn purple while the solution remained yellow. To quench the reaction and solubilize the reaction product, 160 μL of acidified isopropanol (4 mL 1N HCl for 96 mL alcohol) were added and the resulting mixture was mixed vigorously to dissolve purple crystals. Absorbance was determined at 550-570 nm on an ELISA plate reader within 0.5-2 hours. […] To obtain the LD50 values for each compound, the concentration at which the absorbance is haft of that for the untreated cells was determined.

[7] = in vitro; settings: african green monkey, cos-7 cells
Experimental: MTT cell viability assay. This is a quantitative colorimetric assay for mammalian cell survival and proliferation. Cells were seeded in 96 well plates and grown to near 50% confluency. A serial dilution (1 to 500 μM) of each compound was then prepared in culture media and added (250 μL/well) in duplicate. All culture media was adjusted to a final concentration of 1.0% DMSO (volume basis). The cells were allowed to grow for either 4 hours or 24 hours. The culture media were then removed, and the cells were washed with phosphate buffered saline (PBS) before 50 μL of MTT solution (1 mg/mL in PBS) was added. After incubating for 4 hours at 37° C., the reaction was quenched by adding 160 μL of acidified isopropanol and mixing to dissolve purple crystals. The absorbance was determined within 30 minutes at 570 nm on an ELISA plate reader.
The cytotoxic effect of the inhibitors was determined using the MTT stain viability assay.

[8] = tested on: p24; experiment: p24 core antigen ELISA of virus from treated COS-7 cells; settings: Human immunodeficiency virus 1, COS-7, 4 h; for IC50: read-out: Reduction of p24 IC50 (μM)
Experimental: Drug treatment. The compounds were added 48 hours post-transfection, at the peak of virus production, and the incubation was restricted to a 4-hour period. […] Culture media were adjusted to the desired concentration of these compounds just prior to the addition of the media to cells. To avoid precipitation, the compounds were aliquoted first to a tube in sufficient DMSO to yield a 1.0% final concentration, and subsequently the culture medium was added quickly and vortexed. The culture medium was collected after 4 hours of incubation of the cells with each of the compounds. This culture supernatant is the source of virus for measurement of infectivity as well as levels of p24 and other capsid proteins.
p24 Core antigen ELISA assay. An ELISA kit purchased from NEN/Dupont was used to determine the amount of p24 present in culture media or virus preparations. This capture assay uses a monoclonal antibody that preferentially binds p24 while it reacts with larger capsid protein precursors to a very limited extent. The assay was carded out using the manufacturer's indications. Samples were pre-treated with 1% Triton to inactivate the virus.
Virus isolation by ultracentrifugation. The culture medium was filtered through a 0.45 μm syringe filter and was then centrifuged to remove any precipitate. The medium was then spun through a cushion of 20% sucrose in PBS in an SW41 Beckman rotor for 1.5 hours at 35K and 4° C. The pelleted material was collected.
Following incubation of virus-producing cells with various concentrations of the test compounds, the virus particles were isolated by ultracentrifugation. These particles were disrupted using Triton X-100 and the amount of p24 capsid protein was quantitated by ELISA.

[9] = Solubility
[10] = target: HIV-1 PR Q7K (Human immunodeficiency virus type 1 group M subtype B, UniProt P03369, Q497K); format: biochemical; settings: read-out: kinact (μM) HIV-1; inhibitor concentration resulting in half-maximal inactivation; pH 8.0, 25° C.
[11] = target: T3, HIV-2 PR (Human immunodeficiency virus type 2 subtype A, UniProt P04584); experiment: biochemical; format: biochemical; settings: for KI (inactivation): read-out: kinact (μM) HIV-2
T3 construct: HIV-2 PR (at a final concentration of 30 μg/mL); made in house
T3 sequence (P04584 514-612 limits assumed): as above

[12] = HIV-1 Protease IC50 (μM) 1M NaCl
[13] = read-out: % p24 Relative to Untreated
[14] = HIV-1 Protease IC50 (μM) 1M NaCl, 1M NaCl
[15] = inhibitor concentration resulting in half-maximal inactivation, pH 8.0, 25° C.
[16] = pH 8, maximum inactivation rate, read-out: Vinact (min^-1 × 10^3) HIV-2 (converted)

OC(CCCN1CCC(O)(c2ccc(Cl)cc2)CC1)c1ccc(F)cc1 (stereo not shown) [UCSF2]
HIV-1 Protease Therapeutic Index (LD50 /IC50) [1]: 0.5 | IC50 [1, 12]: 200 µM | IC50 [2]: 700 µM | solubility [3]: > 250 µM | inhibition of protein processing (intermediate bands) [4]: An increase in the band representing an intermediate in the vicinity of the 29-kDa marker

OC1(c2ccc(Cl)cc2)CCN(CCCC2(c3ccc(F)cc3)SCCS2)CC1 [UCSF8, (1,2-ethanethioacetal)-4-(4-(p-chlorophenyl)-4-hydroxypiperidinyl]-4'-fluorobutyrophenone]
HIV-1 Protease Therapeutic Index (LD50 /IC50) [1]: 4 | inhibition of HIV-1 protease compared with other compounds [1]: 50% inhibition is achieved at a much lower inhibitor concentration relative to haloperidol | IC50 [1, 12]: 15 µM | IC50 ([1]; IC50): 73 µM and 32 µM and 15 µM | IC50 ([2]; 1M NaCl): 100 µM | inhibition at 20 µM ([5]; Human immunodeficiency virus 1, HeLaT4, 20 μM, 4-hour treatment, read-out: Hela/T4 Infection % Colony Reduction): 85% | colony reduction (summary in words) [5]: significant colony reduction | CC50 at 6 h [6]: 60 µM | solubility [3]: > 250 µM | CC50 at 4 h [7]: 45 µM | cytotoxicity at 4 h, 20 µM [7]: 55% | activity at 20 µM [8, 13]: 62%

OC1(CCCCc2ccccc2)CCC(O)(c2ccccc2)CC1 (stereo not shown) [UCSF29, 4-(4'-phenylbutyl)-1-phenyl-1,4-cyclohexanediol]
IC50 ([1]; 0.2M NaCl, read-out: IC50): 1400 µM | IC50 ([1]; 0.5M NaCl, read-out: IC50): 625 µM | IC50 ([1]; 1.0M NaCl, read-out: IC50): 128 µM | inhibition of HIV-1 protease compared with other compounds ([1]; FIGS. 5-8, three salt concentrations): not unlike that for haloperidol | IC50 [1, 14]: 128 µM | HIV-1 Protease Therapeutic Index (LD50 /IC50) ([1]; LD50/IC50): 1.2 | inhibition at 250 µM ([5]; Human immunodeficiency virus 1, HeLaT4, 250 μM, 4-hour treatment, read-out: Hela/T4 Infection % Colony Reduction): 100% | colony reduction (summary in words) [5]: significant colony reduction | CC50 at 6 h [6]: 160 µM | CC50 at 4 h [7]: 180 µM | cytotoxicity at 4 h, 250 µM [7]: 80% | solubility [9]: > 250 µM | activity at 250 µM [8, 13]: 35%

C=C(CCCC1(O)CCC(O)(c2ccc(Cl)cc2)CC1)c1ccccc1 (stereo not shown) [UCSF41, 4-(4'-phenyl-4-pentenyl)-1-(p-chlorophenyl)-1,4-cyclohexanediol]
IC50 [1, 14]: 160 µM | HIV-1 Protease Therapeutic Index (LD50 /IC50) ([1]; LD50/IC50): 0.6 | CC50 at 6 h [6]: 90 µM | solubility [9]: > 500 µM

C=C(CCC[N+]1([O-])CCC(O)(c2ccc(Cl)cc2)CC1)c1ccc(F)cc1 (stereo not shown) [UCSF42]
HIV-1 Protease Therapeutic Index (LD50 /IC50) [1]: 5.3 | inhibition of HIV-1 protease compared with other compounds [1]: better inhibitor than haloperidol but not as potent an inhibitor as UCSF8 | IC50 [1, 12]: 30 µM | IC50 ([2]; 1M NaCl): 67 µM | inhibition at 75 µM ([5]; Human immunodeficiency virus 1, HeLaT4, 75 μM, 4-hour treatment, read-out: Hela/T4 Infection % Colony Reduction): 92% | colony reduction (summary in words) [5]: significant colony reduction | CC50 at 6 h [6]: 160 µM | solubility [3]: 500 µM (≈ 195 µg/mL) | CC50 at 4 h [7]: 300 µM | cytotoxicity at 4 h, 75 µM [7]: 0% | activity at 75 µM [8, 13]: 45%

OC1(CCCCc2ccccc2)CCC(O)(c2ccc(Cl)cc2)CC1 (stereo not shown) [UCSF54]
IC50 [1, 14]: 2500 µM | HIV-1 Protease Therapeutic Index (LD50 /IC50) ([1]; LD50/IC50): < 0.08 | CC50 at 6 h [6]: 190 µM | solubility [9]: > 500 µM

O=C(CCCC1(O)CCC(O)(c2ccc(Cl)cc2)CC1)c1ccc(F)cc1 (stereo not shown) [UCSF65, 4-(4'-p-fluorophenyl-4'-butanone)-1-p-chlorophenyl-1,4-cyclohexanediol]
CC50 at 6 h [6]: 250 µM | solubility [9]: < 100 µM

C#CCC(CC#C)(CCN1CCC(O)(c2ccc(Cl)cc2)CC1)C(=O)c1ccc(F)cc1 [UCSF69]
IC50 [1, 12]: 50 µM | IC50 ([2]; 1M NaCl): 60 µM | CC50 at 6 h [6]: 220 µM | solubility [3]: < 100 µM

OC1(C#CC2(c3ccccc3)CO2)CCN(Cc2ccccc2)CC1 (stereo not shown) [UCSF70, N-benzyl-4-hydroxy-4-(3,4-epoxy-3-phenyl-1-butyny)piperidine]
IC50 [1, 14]: 750 µM | KI (inactivation) [10]: 407 ± 61.6 µM | CC50 at 6 h [6]: 120 µM | CC50 at 4 h [7]: 70 µM | CC50 at 24 h [7]: 35 µM | solubility [9]: > 500 µM | IC50 [8]: 25 µM

OC(CC#CC1(O)CCN(Cc2ccccc2)CC1)c1ccccc1 (stereo not shown) [UCSF72]
IC50 [1, 14]: 750 µM | CC50 at 6 h [6]: 260 µM | solubility [9]: > 500 µM

CC(CCc1ccccc1)N1CCC(O)(c2ccc(Cl)cc2)CC1 (stereo not shown) [UCSF73]
IC50 [1, 12]: 100 µM | IC50 ([2]; 1M NaCl): 188 µM | CC50 at 6 h [6]: 360 µM | solubility [3]: < 500 µM

OC1(C2(c3ccc(Cl)cc3)SCCCS2)CCN(CCCC2(c3ccc(F)cc3)SCCS2)CC1 [UCSF75]
IC50 [1, 14]: 50 µM | IC50 ([2]; 1M NaCl): 13 µM | CC50 at 6 h [6]: 200 µM | solubility [9]: < 50 µM

OC(CC=CC1(O)CCN(Cc2ccccc2)CC1)c1ccccc1 (stereo not shown) [UCSF76]
IC50 [1, 14]: 1650 µM | CC50 at 6 h [6]: 440 µM | solubility [9]: > 500 µM

OC(CCCC1(O)CCN(Cc2ccccc2)CC1)c1ccccc1 (stereo not shown) [UCSF77]
IC50 [1, 14]: 2500 µM | IC50 ([2]; 1M NaCl): 500 µM | CC50 at 6 h [6]: 500 µM | solubility [9]: > 500 µM

OC1(c2ccc(Cl)cc2)CCN(CCCC2(c3ccc(F)cc3)OCCS2)CC1 (stereo not shown) [UCSF78]
IC50 [1, 12]: 39 µM | IC50 ([2]; 1M NaCl): 167 µM | CC50 at 6 h [6]: 35 µM | solubility [3]: > 500 µM

CC[C@@H]1CSC(CCCN2CCC(O)(c3ccc(Cl)cc3)CC2)(c2ccc(F)cc2)O1 (stereo partly shown) [UCSF79]
IC50 [1, 12]: 30 µM | IC50 ([2]; 1M NaCl): 68 µM | CC50 at 6 h [6]: 35 µM | solubility [3]: > 250 µM

CC[C@H]1CSC(CCCN2CCC(O)(c3ccc(Cl)cc3)CC2)(c2ccc(F)cc2)O1 (stereo partly shown) [UCSF80]
IC50 [1, 12]: 33 µM | IC50 ([2]; 1M NaCl): 58 µM | CC50 at 6 h [6]: 40 µM | solubility [3]: > 250 µM

O=C(c1ccc(N2CCC(O)(c3ccc(Cl)cc3)CC2)cc1)C1CC1 [UCSF81]
IC50 [1, 14]: 200 µM | HIV-1 Protease Therapeutic Index (LD50 /IC50) ([1]; LD50/IC50): > 1.25 | IC50 ([2]; 1M NaCl): 1000 µM | CC50 at 6 h [6]: > 250 µM | solubility [9]: > 250 µM

C=CCCCC1(C(=O)c2ccc(N3CCC(O)(c4ccc(Cl)cc4)CC3)cc2)CC1 [UCSF82]
IC50 [1, 14]: 100 µM | IC50 ([2]; 1M NaCl): 800 µM | CC50 at 6 h [6]: > 250 µM | solubility [9]: < 100 µM

O=C(c1ccc(N2CCC(O)(c3ccc(Cl)cc3)CC2)cc1)C1(CC#CCO)CC1 [UCSF83]
IC50 [1, 14]: 15 µM | IC50 ([2]; 1M NaCl): 78 µM | CC50 at 6 h [6]: > 250 µM | solubility [9]: > 250 µM

O=C(C#CCN1CCC(O)(c2ccc(Cl)cc2)CC1)c1ccccc1 [UCSF86, 4-(4'-(4"-chlorophenyl)-4'-hydroxypiperidinyl)-1-phenylbut-2-yn-1-one]
IC50 [1, 12]: 20 µM | KI (inactivation) [10]: 62.4 ± 3.1 µM | KI (inactivation) [11, 15]: 131 ± 4.4 µM | kinact [11, 16]: 0.0076 min⁻¹ | CC50 at 6 h [6]: 15 to 20 µM | solubility [3]: > 60 µM | CC50 at 4 h [7]: 15 µM | CC50 at 24 h [7]: < 10 µM

O=C(/C=C/C[N+]1([O-])CCC(O)(c2ccc(Cl)cc2)CC1)c1ccc(F)cc1 (stereo not shown) [UCSF115]
IC50 [1, 12]: 30 µM | KI (inactivation) [10]: 144 ± 14.8 µM | KI (inactivation) [11, 15]: 116 ± 4.7 µM | kinact [11, 16]: 0.0052 min⁻¹ | CC50 at 6 h [6]: 250 µM | solubility [3]: 250 µM (≈ 97.5 µg/mL) | CC50 at 4 h [7]: 250 µM | CC50 at 24 h [7]: 200 µM | IC50 [8]: 75 µM

O=C(C=C(CN1CCC(O)(c2ccc(Cl)cc2)CC1)SCCO)c1ccccc1 [UCSF178, 4-(4'-(4"-chlorophenyl)-4'-hydroxypiperidinyl)-3-(2'-hydroxyethylthio)-1-phenyl-2-buten-1-one]
IC50 [1, 12]: 140 µM | KI (inactivation) [10]: 232 ± 10.8 µM | KI (inactivation) [11, 15]: 120 ± 9.9 µM | kinact [11, 16]: 0.0046 min⁻¹ | CC50 at 6 h [6]: > 250 µM | solubility [3]: 150 µM (≈ 64.8 µg/mL) | CC50 at 4 h [7]: > 250 µM | CC50 at 24 h [7]: 75 µM

O=C(/C=C/CN1CCC(O)(c2ccc(Cl)cc2)CC1)c1ccc(F)cc1 [UCSF191]
IC50 [1, 12]: 80 µM | KI (inactivation) [10]: 57.2 ± 7.1 µM | kinact ([11]; pH 8, read-out: Vinact (min^-1 × 10^3) HIV-2): 0.0121 min⁻¹ | KI (inactivation) ([11]; hiv-2 pr, pH 8): 156 ± 2.3 µM | CC50 at 6 h [6]: 22 µM | solubility [3]: > 150 µM

O=C(C#CCN1CCC(O)(c2ccc(Cl)cc2)CC1)c1ccc(-c2ccccc2)cc1 [UCSF231, 4-(4'-(4"-chlorophenyl)-4'-hydroxypiperidinyl)-1-p-biphenylbut-2-yn-1-one]
HIV-1 Protease Therapeutic Index (LD50 /IC50) [1]: < 0.1 | IC50 [1, 12]: 100 µM | KI (inactivation) [10]: 385 ± 58 µM | CC50 at 6 h [6]: 10 µM | CC50 at 4 h [7]: < 5 µM | CC50 at 24 h [7]: < 5 µM
